Test results published in ChEMBL document CHEMBL3044716, “Discovery of imidacloprid and further developments from strategic molecular designs” (J Agric Food Chem, 2011).
The source made the active and inactive calls. No cut-off for these calls is given here.

Legend:
Nephotettix cincticeps [1] = assay: Insecticidal activity against Nephotettix cincticeps (green rice leafhopper) assessed as mortality measured after 4 days; type: functional
[2] = Photolysis of the compound assessed as half life at 30 degC by 250 W sun lamp; type: physicochemical
Nephotettix cincticeps [3] = assay: Insecticidal activity against Nephotettix cincticeps (green rice leafhopper) in rice plant assessed as mortality at 100 mg/L insects released after 7 days of compound treatment measured after 24 hr of insect release; type: functional
Nephotettix cincticeps [4] = assay: Insecticidal activity against Nephotettix cincticeps (green rice leafhopper) in rice plant assessed as mortality at 100 mg/L insects released after 7 days of compound treatment measured after 72 hr of insect release (reference value: 0%); type: functional
Nephotettix cincticeps [5] = assay: Insecticidal activity against Nephotettix cincticeps (green rice leafhopper) in rice plant assessed as mortality at 100 mg/L insects released after 14 days of compound treatment measured after 24 hr of insect release; type: functional
Nephotettix cincticeps [6] = assay: Insecticidal activity against Nephotettix cincticeps (green rice leafhopper) in rice plant assessed as mortality at 100 mg/L insects released after 14 days of compound treatment measured after 48 hr of insect release; type: functional
Nephotettix cincticeps [7] = assay: Insecticidal activity against Nephotettix cincticeps (green rice leafhopper) in rice plant assessed as mortality at 100 mg/L insects released after 3 days of compound treatment measured after 24 hr of insect release; type: functional
Nephotettix cincticeps [8] = assay: Insecticidal activity against Nephotettix cincticeps (green rice leafhopper) in rice plant assessed as mortality at 100 mg/L insects released after 7 days of compound treatment measured after 48 hr of insect release; type: functional
Nephotettix cincticeps [9] = assay: Insecticidal activity against Nephotettix cincticeps (green rice leafhopper) in rice plant assessed as mortality at 100 mg/L insects released after 3 days of compound treatment measured after 72 hr of insect release (reference value: 0%); type: functional
Nephotettix cincticeps [10] = assay: Insecticidal activity against Nephotettix cincticeps (green rice leafhopper) in rice plant assessed as mortality at 100 mg/L insects released after 3 days of compound treatment measured after 48 hr of insect release; type: functional
Nephotettix cincticeps [11] = assay: Insecticidal activity against Nephotettix cincticeps (green rice leafhopper) in rice plant assessed as mortality at 100 mg/L insects released after 14 days of compound treatment measured after 72 hr of insect release (reference value: 0%); type: functional
Spodoptera litura = assay: Insecticidal activity against Spodoptera litura (tobacco cutworm) assessed as mortality measured as LC90; type: functional
Myzus persicae [12] = assay: Insecticidal activity against Myzus persicae (green peach aphid) in cabbage plant assessed as mortality at 100 mg/L insects released after 3 days of compound treatment measured after 72 hr of insect release (reference value: 14 +/- 4%); type: functional
Myzus persicae [13] = assay: Insecticidal activity against Myzus persicae (green peach aphid) in cabbage plant assessed as mortality at 100 mg/L insects released after 14 days of compound treatment measured after 72 hr of insect release (reference value: 0%); type: functional
Myzus persicae [14] = assay: Insecticidal activity against Myzus persicae (green peach aphid) in cabbage plant assessed as mortality at 100 mg/L insects released after 7 days of compound treatment measured after 72 hr of insect release (reference value: 10 +/- 3%); type: functional

| Structure (SMILES) | LC90 (Nephotettix cincticeps [1]) | also measured |
| --- | --- | --- |
| Cc1ccc(CN2CCN/C2=C\[N+](=O)[O-])cn1 | 1.6 ppm | – |
| O=[N+]([O-])/C=C1\SCCN1Cc1ccc(Cl)nc1 | – | half-life [2]: < 0.5 h |
| O=[N+]([O-])/C=C1\NCCN1CCc1ccccc1 | inactive | – |
| O=[N+]([O-])/C=C1\NCCCN1Cc1ccc(Cl)nc1 | – | half-life [2]: 2 h |
| COc1ccc(CN2CCN/C2=C\[N+](=O)[O-])cc1 | 200 ppm | – |
| CN1CCN(Cc2ccc(Cl)nc2)/C1=N/[N+](=O)[O-] | 1.6 ppm | – |
| O=[N+]([O-])/C=C1\NCCN1C1CCCCC1 | 1000 ppm | – |
| O=[N+]([O-])/C=C1\NCCN1Cc1ccncc1 | 8 ppm | – |
| COc1ccc(CN2CCN/C2=C\[N+](=O)[O-])cn1 | 200 ppm | – |
| O=[N+]([O-])/C=C1\NCCN1Cc1cncc(Cl)c1 | 40 ppm | – |
| O=[N+]([O-])/C=C1\NCCN1Cc1ccc(Cl)nc1 | 0.32 ppm | half-life [2]: 1 h |
| O=[N+]([O-])/C=C1\NCCN1Cc1cnc2ccccc2c1 | inactive | – |
| O=[N+]([O-])/N=C1\NCCN1Cc1ccc(Cl)nc1 [IMIDACLOPRID] | <0.32 ppm | mortality (Nephotettix cincticeps [3]): 89%; mortality (Nephotettix cincticeps [4]): 100%; mortality (Nephotettix cincticeps [5]): 95%; mortality (Nephotettix cincticeps [6]): 100%; mortality (Nephotettix cincticeps [7]): 47%; mortality (Nephotettix cincticeps [8]): 100%; mortality (Nephotettix cincticeps [9]): 100%; mortality (Nephotettix cincticeps [10]): 80%; mortality (Nephotettix cincticeps [11]): 100%; half-life [2]: 3 h |
| O=[N+]([O-])/C=C1\NCCN1Cc1cccnc1 | 8 ppm | – |
| O=[N+]([O-])/C=C1\NCCN1CC1CCCO1 (centres undefined) | 500 ppm | – |
| CCCN1CCN(Cc2ccc(Cl)nc2)/C1=N/[N+](=O)[O-] | 0.32 ppm | – |
| O=[N+]([O-])/C=C1\NCCN1Cc1cncnc1 | 8 ppm | – |
| O=[N+]([O-])/C=C1\NCCN1Cc1cncs1 | 8 ppm | – |
| N#Cc1ccc(CN2CCN/C2=C\[N+](=O)[O-])cn1 | 200 ppm | – |
| CCOC(=O)/C=C1\NCCN1Cc1ccc(Cl)nc1 | inactive | – |
| O=[N+]([O-])/C=C1\NCCN1Cc1ccc(Br)nc1 | 1.6 ppm | – |
| O=[N+]([O-])/C=C1\NCCN1Cc1ccco1 | 200 ppm | – |
| O=[N+]([O-])/C=C1\NCCN1Cc1cccs1 | 200 ppm | – |

| Structure (SMILES) | LC90 (Nephotettix cincticeps [1]) | also measured |
| --- | --- | --- |
| O=[N+]([O-])N=C1N(Cc2ccc(Cl)nc2)CCN1Cc1ccc(Cl)nc1 | 1.6 ppm | – |
| N#CC(C#N)=C1NCCN1Cc1ccc(Cl)nc1 | 40 ppm | – |
| O=[N+]([O-])/C=C1\NCCN1Cc1ccc(C(F)(F)F)nc1 | 8 ppm | – |
| O=[N+]([O-])/C=C1\NCCCCN1Cc1ccccc1 | 1000 ppm | – |
| O=[N+]([O-])/C=C1\NCCN1Cc1ccncn1 | 40 ppm | – |
| O=[N+]([O-])C=C1NCCN1 [2-(NITROMETHYLENE)IMIDAZOLIDINE] | 1000 ppm | – |
| CCCCN1CCN(Cc2ccc(Cl)nc2)/C1=N/[N+](=O)[O-] | 1.6 ppm | – |
| O=[N+]([O-])/C=C1\NCCN1Cc1cccnc1Cl | 200 ppm | – |
| Cc1ccc(CN2CCN/C2=C\[N+](=O)[O-])cc1 | 200 ppm | – |
| O=[N+]([O-])/C=C1\NCCN1Cc1ccc(F)nc1 | 0.32 ppm | – |
| O=[N+]([O-])/C=C1\NCCN1Cc1cnco1 | 40 ppm | – |
| N=C1NCCN1Cc1ccc(Cl)nc1 [DESNITROIMIDACLOPRID] | 1000 ppm | – |
| O=[N+]([O-])/C=C1\NCCN1Cc1ccccc1 | 200 ppm | – |
| O=[N+]([O-])/N=C1\NCCCN1Cc1ccc(Cl)nc1 | – | half-life [2]: 3.5 h |
| O=[N+]([O-])/C=C1\NCCN1Cc1ccccc1Cl | inactive | – |
| O=[N+]([O-])/C=C1\NCCCCCN1Cc1ccccc1 | 1000 ppm | – |
| N#Cc1cccc(CN2CCN/C2=C\[N+](=O)[O-])c1 | 40 ppm | – |
| O=[N+]([O-])/C=C1\NCCN1c1ccccc1 | 1000 ppm | – |
| O=[N+]([O-])/C=C1\NCCN1Cc1ccsc1 | 200 ppm | – |
| O=[N+]([O-])/C=C1\NCCCN1Cc1ccccc1 | >200 ppm | – |
| O=[N+]([O-])C=C1NCCCS1 | 40 ppm | LC90 (Spodoptera litura): <40 ppm; half-life [2]: 0.5 h |
| C=CCN1CCN(Cc2ccc(Cl)nc2)/C1=N/[N+](=O)[O-] | 0.32 ppm | – |
| CCCCCCN1CCN(Cc2ccc(Cl)nc2)/C1=N/[N+](=O)[O-] | 40 ppm | – |

| Structure (SMILES) | LC90 (Nephotettix cincticeps [1]) | also measured |
| --- | --- | --- |
| CCN1CCN(Cc2ccc(Cl)nc2)/C1=N/[N+](=O)[O-] | 8 ppm | – |
| O=[N+]([O-])/C=C1\NCCN1Cc1ccc(Cl)cc1 | 40 ppm | LC90 (Spodoptera litura): 500 ppm |
| CCCCCN1CCN(Cc2ccc(Cl)nc2)/C1=N/[N+](=O)[O-] | 20 ppm | – |
| CCOC(=O)/N=C1\NCCN1Cc1ccc(Cl)nc1 | 40 ppm | – |
| CC(=O)Nc1ccc(CN2CCN/C2=C\[N+](=O)[O-])cn1 | 1000 ppm | – |
| O=[N+]([O-])/C=C1\NCCN1Cc1cnccn1 | 8 ppm | – |
| N#C/N=C1\NCCN1Cc1ccc(Cl)nc1 | 0.32 ppm | half-life [2]: > 24 h |
| O=[N+]([O-])/C=C1\NCCN1Cc1cccc(Cl)c1 | 200 ppm | – |
| O=[N+]([O-])/N=C1/N(CCCCCCCN2CCN(Cc3ccc(Cl)nc3)/C2=N/[N+](=O)[O-])CCN1Cc1ccc(Cl)nc1 [Heptamethylene 1,7-bis-imadacloprid] | – | mortality (Nephotettix cincticeps [3]): 83%; mortality (Myzus persicae [12]): 100%; mortality (Nephotettix cincticeps [4]): 100%; mortality (Nephotettix cincticeps [5]): 100%; mortality (Nephotettix cincticeps [6]): 100%; mortality (Nephotettix cincticeps [7]): 13%; mortality (Nephotettix cincticeps [8]): 100%; mortality (Nephotettix cincticeps [9]): 100%; mortality (Nephotettix cincticeps [10]): 40%; mortality (Nephotettix cincticeps [11]): 100%; mortality (Myzus persicae [13]): 100%; mortality (Myzus persicae [14]): 100% |
| N#C/C=C1\NCCN1Cc1ccc(Cl)nc1 | inactive | – |
| CN/C(=C\[N+](=O)[O-])NCc1ccccc1 | inactive | – |
| CSc1ccc(CN2CCN/C2=C\[N+](=O)[O-])cn1 | 1000 ppm | – |
| O=[N+]([O-])/C=C1\NCCN1Cc1ccccn1 | 200 ppm | – |
| O=[N+]([O-])/N=C1/N(CCCCCCN2CCN(Cc3ccc(Cl)nc3)/C2=N/[N+](=O)[O-])CCN1Cc1ccc(Cl)nc1 [Hexamethylene 1,6-bis-imadacloprid] | – | mortality (Nephotettix cincticeps [3]): 59%; mortality (Myzus persicae [12]): 83%; mortality (Nephotettix cincticeps [4]): 94%; mortality (Nephotettix cincticeps [5]): 60%; mortality (Nephotettix cincticeps [6]): 100%; mortality (Nephotettix cincticeps [7]): 56%; mortality (Nephotettix cincticeps [8]): 94%; mortality (Nephotettix cincticeps [9]): 89%; mortality (Nephotettix cincticeps [10]): 78%; mortality (Nephotettix cincticeps [11]): 100%; mortality (Myzus persicae [13]): 50%; mortality (Myzus persicae [14]): 55% |
| O=C1NCCN1Cc1ccc(Cl)nc1 | 1000 ppm | – |
| CN1CCN/C1=C\[N+](=O)[O-] | 1000 ppm | – |
| O=[N+]([O-])/C=C1\NCCN1Cc1ccc([N+](=O)[O-])cc1 | 200 ppm | – |
| CC(C)N1CCN(Cc2ccc(Cl)nc2)/C1=N/[N+](=O)[O-] | 40 ppm | – |
| CS(=O)(=O)/N=C1\NCCN1Cc1ccc(Cl)nc1 | 40 ppm | – |
| O=[N+]([O-])/C=C1\NCCN1Cc1ccn[nH]1 | 200 ppm | – |
| O=[N+]([O-])/C=C1\NCCN1Cc1ccc[nH]1 | 200 ppm | – |
